Source: US5561161A, “Methods of administering and pharmaceutical formulations containing n-substituted benzamides and/or acid addition salts thereof” (priority 1994, dated 1996)
Entries after “also recorded” stand apart in the source; their conditions may differ. Counter-ions that a name gives are not always drawn. Like-named read-outs stand apart in the source and are kept apart here.

Tests used:
[1] = test system: dopamine2 (D2) receptor; details: cited from earlier work
[2] = test system: 5-hydroxytryptamine3 (5-HT3) receptor; details: cited from earlier work
[3] = cited from earlier work
[4] = test system: human cancer patients; details: intravenous, cisplatin chemotherapy; cited from earlier work
[5] = test system: human lung adenocarcinoma (H-2981); test: Radiosensitization of human lung adenocarcinoma xenografts in Scid mice; details: 2 mg/kg i.m., -1 or -2 hours to 1 Gy; hydrochloride
Method: Tumor tissue suspensions were prepared and inoculated subcutaneously into the midback region of 3-5 week old Scid mice so that 10 mm×10 mm tumors were grown in about 25 days. […] The tumor volumes were measured and recorded every 2-3 days and analyzed by a t-test at day 17 after inoculation.

SMILES | binding to D2 receptor [1] | sodium ion dependence of D2 receptor binding [1] | binding to 5-HT3 receptor [2] | solubility in water / aqueous vehicles [3] | inhibition of emesis [4] | solubility in water / aqueous vehicles ([3]; hydrochloride) | radiosensitization, effect of pH (acidic vs neutral form) [5]
CCN(CC)CCNC(=O)c1cc(Cl)c(N)cc1OC [metoclopramide] | known to bind | sodium ion dependent | known to bind | quite insoluble in water | can inhibit the biological response of emesis |  | 
CCN(CC)CCNC(=O)c1cc(Cl)c(N)cc1OC [metoclopramide hydrochloride] |  |  |  |  |  | freely soluble in water | not altered; also recorded: Lack of any measurable difference
